Data from patent publication US6440986B2, “HIV Inhibiting pyrimidine derivatives” (Janssen Pharmaceutica, N.V., priority 1998, dated 2002).
Structures can show the parent of a compound that is named as a salt. Where two headings read alike, the source gives them in different places.

Experiments:
HIV-1 = assay: in vitro anti-HIV assay: inhibition of the HIV-induced cytopathic effect in MT-4 cells (MTT); format: cell-based; conditions: dose achieving 50% protection of HIV-infected MT-4 cells against cytopathic effect, OD 540 nm
Protocol: (§1) A rapid, sensitive and automated assay procedure was used for the in vitro evaluation of anti-HIV agents. An HIV-1 transformed T4-cell line, MT-4, which was previously shown (Koyanagi et al., Int. J. Cancer, 36, 445-451, 1985) to be highly susceptible to and permissive for HIV infection, served as the target cell line. Inhibition of the HIV-induced cytopathic effect was used as the end point. The viability of both HIV- and mock-infected cells was assessed spectrophotometrically via the in situ reduction of 3-(4,5-dimethylthiazol-2-yl)-2,5-diphenyltetrazolium bromide (MTT). […] The percent protection achieved by the compound in HIV-infected cells was calculated by the following formula: [formula]
(§2) whereby (ODT)HIV is the optical density measured with a given concentration of the test compound in HIV-infected cells; (ODC)HIV is the optical density measured for the control untreated HIV-infected cells: (ODC)MOCK is the optical density measured for the control untreated mock-infected cells; all optical density values were determined at 540 nm. […] The ratio of CC50 to IC50 was defined as the selectivity index (SI).

[1] = test system: MT-4 cells (mock-infected); assay: cytotoxicity in mock-infected MT-4 cells (MTT); format: cell-based
Protocol: as §1, with “An HIV-1 transformed T4-cell line, MT-4, which was previously shown (Koyanagi et al., Int. J. Cancer, 36, 445-451, 1985) to be highly susceptible to and permissive for HIV infection, served as the target cell line.” left out
as §2

[2] = 50% cytotoxic concentration, reduces absorbance of mock-infected MT-4 control by 50%, MTT, read-out: CC50

SMILES: Cc1cc(C)c(Nc2cc(N)nc(Nc3ccc(C#N)cc3)n2)c(C)c1 [Compound 94]
- IC50 (HIV-1): 2.2 nM
- CC50 [1]: 11100 nM

SMILES: Cc1cc(C#N)cc(C)c1Oc1ccnc(Nc2ccc(C#N)cc2)n1 [Compound 81]
- IC50 (HIV-1): 1.1 nM
- CC50 [1]: > 100000 nM

SMILES: CC(=O)Nc1cc(Cc2c(Cl)cccc2Cl)nc(Nc2ccc(C#N)cc2)n1 [Compound 21]
- IC50 (HIV-1): 17 nM
- CC50 [1]: 50600 nM

SMILES: Cc1cc(C)c(Nc2nccc(Nc3ccc(C#N)cc3)n2)c(C)c1 [Compound 93]
- IC50 (HIV-1): 3.5 nM
- CC50 [1]: 48100 nM

SMILES: Cc1cc(C)c(Sc2nc(Nc3ccc(C#N)cc3)ncc2C)c(C)c1 [Compound 86]
- IC50 (HIV-1): 10 nM
- CC50 [1]: > 100000 nM

SMILES: N#Cc1ccc(Nc2cc(Oc3c(Cl)cccc3Cl)nc(N)n2)cc1 [Compound 50]
- IC50 (HIV-1): 518 nM
- CC50 [1]: 52000 nM

SMILES: N#Cc1ccc(Nc2nccc(Nc3c(Cl)cc(OC(F)(F)F)cc3Cl)n2)cc1 [Compound 77]
- IC50 (HIV-1): 3 nM
- CC50 [1]: 9600 nM

SMILES: COc1ccc(CCNc2cc(Cc3c(Cl)cccc3Cl)nc(Nc3ccc(C#N)cc3)n2)cc1 [Compound 10]
- IC50 (HIV-1): 2530 nM
- CC50 [1]: > 100000 nM

SMILES: CCCCCCCCCCCC(=O)Nc1cc(Cc2c(Cl)cccc2Cl)nc(Nc2ccc(C#N)cc2)n1 [Compound 18]
- IC50 (HIV-1): 2100 nM
- CC50 [1]: 59900 nM

SMILES: Cc1ccc(Nc2nc(N)cc(Cc3c(Cl)cccc3Cl)n2)cc1 [Compound 35]
- IC50 (HIV-1): 103 nM
- CC50 [1, 2]: 42300 nM

SMILES: Cc1c(Cc2c(Cl)cccc2Cl)nc(N)nc1Nc1ccc(C#N)cc1 [Compound 46]
- IC50 (HIV-1): 45200 nM
- CC50 [1, 2]: > 100000 nM

SMILES: CCCc1cc(Br)c(Nc2nc(Nc3ccc(C#N)cc3)ncc2C)c(Br)c1 [Compound 87]
- IC50 (HIV-1): 3.1 nM
- CC50 [1]: 2200 nM

SMILES: N#Cc1ccc(Nc2nccc(Nc3c(Cl)cc(F)cc3Br)n2)cc1 [Compound 67]
- IC50 (HIV-1): 2.4 nM
- CC50 [1]: 400 nM

SMILES: Cc1cc(C)c(Sc2ccnc(Nc3ccc(C#N)cc3)n2)c(C)c1 [Compound 73]
- IC50 (HIV-1): 3.6 nM
- CC50 [1]: > 100000 nM

SMILES: CC(C)OCCCNc1cc(Cc2c(Cl)cccc2Cl)nc(Nc2ccc(C#N)cc2)n1 [Compound 7]
- IC50 (HIV-1): 975 nM
- CC50 [1]: > 100000 nM

SMILES: N#Cc1ccc(Nc2nc(Cc3c(Cl)cccc3Cl)cc(NCCc3cccs3)n2)cc1 [Compound 14]
- IC50 (HIV-1): 2180 nM
- CC50 [1]: 89000 nM

SMILES: Cc1c(N)nc(Nc2ccc(CC#N)cc2)nc1Cc1c(Cl)cccc1Cl [Compound 103]
- IC50 (HIV-1): 22 nM
- CC50 [1]: > 100000 nM

SMILES: Cc1cc(C)c(Nc2ccnc(Nc3ccc(C(N)=O)c(N)c3)n2)c(C)c1 [Compound 101]
- IC50 (HIV-1): 53 nM
- CC50 [1]: 29500 nM

SMILES: Cc1cc(C)c(Nc2ccnc(Nc3ccc(Cl)cc3)n2)c(C)c1 [Compound 96]
- IC50 (HIV-1): 3.1 nM
- CC50 [1]: 5800 nM

SMILES: Cc1cc(C)c(Nc2ccnc(Nc3ccc(C#N)c(O)c3)n2)c(C)c1 [Compound 91]
- IC50 (HIV-1): 2.5 nM
- CC50 [1]: 4900 nM

SMILES: CNc1cc(Cc2c(Cl)cccc2Cl)nc(Nc2ccc(C#N)cc2)n1 [Compound 24]
- IC50 (HIV-1): 20 nM
- CC50 [1]: 54000 nM

SMILES: CCCc1cc(Br)c(Nc2ccnc(Nc3ccc(C#N)cc3)n2)c(Br)c1 [Compound 79]
- IC50 (HIV-1): 3.1 nM
- CC50 [1]: 4800 nM

SMILES: Cc1cc(C#N)cc(C)c1Nc1ccnc(Nc2ccc(C#N)cc2)n1 [Compound 69, 4-[[2-[(cyanophenyl)amino]-4-pyrimidinyl]amino]-3,5-dimethylbenzonitrile]
- IC50 (HIV-1): 0.4 nM
- CC50 [1, 2]: 4700 nM

SMILES: N#Cc1ccc(Nc2nc(N)cc(Cc3c(Cl)cccc3Cl)n2)cc1 [Compound 23]
- IC50 (HIV-1): 1 nM
- CC50 [1]: 47900 nM

SMILES: N#Cc1ccc(Nc2nccc(Nc3c(Cl)cc(Br)c(Cl)c3Br)n2)cc1 [Compound 78]
- IC50 (HIV-1): 2.8 nM
- CC50 [1]: 400 nM

SMILES: Cc1cc(C)c(Nc2nc(Nc3ccc(C#N)cc3)ncc2C)c(C)c1 [Compound 63]
- IC50 (HIV-1): 1.7 nM
- CC50 [1]: 300 nM

SMILES: N#Cc1ccc(Nc2cc(Cc3c(Cl)cccc3Cl)nc(N)n2)cc1 [Compound 45]
- IC50 (HIV-1): 10 nM
- CC50 [1, 2]: 56300 nM

SMILES: N#Cc1ccc(Nc2nccc(Nc3c(Cl)cccc3Cl)n2)cc1 [Compound 65]
- IC50 (HIV-1): 180 nM
- CC50 [1]: 200 nM

SMILES: Cc1ccc(Nc2cc(Cc3c(Cl)cccc3Cl)nc(N)n2)cc1 [Compound 36]
- IC50 (HIV-1): 323 nM
- CC50 [1, 2]: > 100000 nM

SMILES: Nc1nc(Cc2c(Cl)cccc2Cl)cc(Nc2ccccc2)n1 [Compound 38]
- IC50 (HIV-1): 2450 nM
- CC50 [1, 2]: 32400 nM

SMILES: Nc1cc(Cc2c(Cl)cccc2Cl)nc(Nc2ccc(Br)cn2)n1 [Compound 32]
- IC50 (HIV-1): 403 nM
- CC50 [1, 2]: > 100000 nM

SMILES: CC(C)c1cc(Br)c(Nc2ccnc(Nc3ccc(C#N)cc3)n2)c(Br)c1 [Compound 62]
- IC50 (HIV-1): 3.2 nM
- CC50 [1]: 8700 nM

SMILES: Cc1c(Cc2c(Cl)cccc2Cl)nc(N)nc1Nc1ccc(Br)cc1 [Compound 48]
- IC50 (HIV-1): 44200 nM
- CC50 [1, 2]: > 100000 nM

SMILES: Nc1cc(Cc2c(Cl)cccc2Cl)nc(Nc2ccc(Cl)cc2)n1 [Compound 29]
- IC50 (HIV-1): 15 nM
- CC50 [1, 2]: > 20000 nM

SMILES: Nc1cc(Cc2c(Cl)cccc2Cl)nc(Nc2ccc(Br)cc2)n1 [Compound 27]
- IC50 (HIV-1): 17 nM
- CC50 [1, 2]: > 20000 nM

SMILES: Nc1cc(Cc2c(Cl)cccc2Cl)nc(Nc2ccccc2)n1 [Compound 37]
- IC50 (HIV-1): 443 nM
- CC50 [1, 2]: 33400 nM

SMILES: N#Cc1ccc(Nc2nccc(Oc3c(Cl)cc(Cl)cc3Cl)n2)cc1 [Compound 60]
- IC50 (HIV-1): 290 nM
- CC50 [1]: > 100000 nM

SMILES: Cc1cc(Cl)cc(Cl)c1Nc1ccnc(Nc2ccc(C#N)cc2)n1 [Compound 68]
- IC50 (HIV-1): 1 nM
- CC50 [1]: 1400 nM

SMILES: Nc1nc(Cc2c(Cl)cccc2Cl)cc(Nc2ccc(F)cc2)n1 [Compound 34]
- IC50 (HIV-1): 319 nM
- CC50 [1, 2]: 57800 nM

SMILES: Nc1cc(Cc2c(Cl)cccc2Cl)nc(Nc2ccc(F)cc2)n1 [Compound 33]
- IC50 (HIV-1): 42 nM
- CC50 [1, 2]: 43400 nM

SMILES: N#Cc1ccc(Nc2cc(Cc3c(Cl)cccc3Cl)nc(NCCO)n2)cc1 [Compound 40]
- IC50 (HIV-1): 253 nM
- CC50 [1, 2]: 40200 nM

SMILES: Cc1cnc(Nc2ccc(C#N)cc2)nc1Nc1c(C)cc(Br)cc1C [Compound 85]
- IC50 (HIV-1): 2 nM
- CC50 [1]: 400 nM

SMILES: Cc1cc(Cl)cc(Cl)c1Oc1ccnc(Nc2ccc(C#N)cc2)n1 [Compound 64]
- IC50 (HIV-1): 120 nM
- CC50 [1]: > 100000 nM

SMILES: Cc1cc(C)c(Nc2ccnc(Nc3ccc(C#N)cc3)n2)c(C)c1 [Compound 53, 4-[[4-[(2,4,6-trimethyl-phenyl)amino]-2-pyrimidinyl]amino]benzonitrile hydrochloride (1:1)]
- IC50 (HIV-1): 0.6 nM
- CC50 [1, 2]: 1300 nM

SMILES: N#Cc1ccc(Nc2nccc(Nc3c(Cl)cc(Cl)cc3Cl)n2)cc1 [Compound 72]
- IC50 (HIV-1): 0.7 nM
- CC50 [1]: 500 nM

SMILES: CNc1nc(Cc2c(Cl)cccc2Cl)cc(Nc2ccc(C#N)cc2)n1 [Compound 41]
- IC50 (HIV-1): 1990 nM
- CC50 [1, 2]: 34200 nM

SMILES: Cc1cc(C)c(Nc2ccnc(Nc3ccc(F)cc3F)n2)c(C)c1 [Compound 97]
- IC50 (HIV-1): 32 nM
- CC50 [1]: 13200 nM

SMILES: N#Cc1ccc(Nc2nccc(NCc3ccccc3)n2)cc1 [Compound 104]
- IC50 (HIV-1): 3.4 nM
- CC50 [1]: 18600 nM

SMILES: N#Cc1ccc(Nc2nccc(Nc3c(F)cc(Br)cc3Br)n2)cc1 [Compound 70]
- IC50 (HIV-1): 0.6 nM
- CC50 [1]: 5800 nM

SMILES: Clc1cccc(Cl)c1Nc1ccnc(Nc2c(Cl)cccc2Cl)n1 [Compound 92]
- IC50 (HIV-1): 45000 nM
- CC50 [1]: > 90000 nM

SMILES: Cc1cnc(Nc2ccc(C#N)cc2)nc1Nc1c(C)cc(C(C)(C)C)cc1C [Compound 84]
- IC50 (HIV-1): 12 nM
- CC50 [1]: 9300 nM

SMILES: Cc1cnc(Nc2ccc(C#N)cc2)nc1Nc1c(C)cc(C#N)cc1C [Compound 83]
- IC50 (HIV-1): 0.8 nM

SMILES: N#Cc1ccc(Nc2nc(Cc3c(Cl)cccc3Cl)cc(NCCCN3CCCC3=O)n2)cc1 [Compound 5]
- CC50 [1]: 56200 nM
